{"source": "patent EP0505220A1", "about": "“New compounds for use in the treatment of cancer” (JARMAN, Michael, priority 1991, dated 1992)", "key": {"ADJ/PC6 tumour": {"system": "ADJ/PC6 tumour", "test": "Antitumour activity towards the ADJ/PC6 tumour in mice", "format": "in vivo", "conditions": "for Highest % inhibition: dose (mg/kg)"}, "[1]": {"test": "Stability of the hydroxymethyl function in human plasma (HPLC)", "format": "in vitro ADME", "conditions": "human plasma at 37°C, 100 µg/ml; read-out: half-life values for the release of product (9) in human plasma", "procedure": "Stability Studies. The influence of the trifluoromethyl substituent on the stability of the hydroxymethyl function under simulated physiological conditions was determined for compound (10) containing contiguous hydroxymethyl and […] functions. General Procedure (for 10). To fresh human plasma (9.9 ml) pre-warmed to 37°C was added a solution of the compound to be studied in dimethylsulphoxide (0.1 ml; 10mg/ml) to give a final concentration of 100 µg/ml. At intervals of 0, 5, 10, 15, 20, 30, 40, 50, 60, 75, 90, 105 and 120 min, aliquots (0.5 ml) were withdrawn and added to ice-cold MeOH (1ml). After centrifugation at 4°C the supernatants were placed in cooled vials on a cold plate (3°C) and aliquots (25 µl) analysed by HPLC using an autosampler. The column used was a C6 (Spherisorb) 15cm x 4.6 mm with a precolumn, and was eluted with MeOH:0.05 M aq. NH₄HCO₃, 55:45, at a flow rate of 1.5 ml min⁻¹. Products were monitored by absorbance at 225 nm. Retention times were: for (10) 11.0 min and for its breakdown product (9) 9.6 min. […] Biological Results. The anti-tumour activities of the compounds of the invention against ADJ/PC6 tumour in mice and against human ovarian tumour cell lines were compared with that of trimelamol (1)."}, "[2]": {"test": "Toxicity (LD50) in the ADJ/PC6 mouse study", "conditions": "in vivo"}, "[3]": {"system": "GCT/CIS R 6-fold platinum resistant variant of above", "test": "Activity in vitro towards GCT/CIS R cell line", "format": "cell-based", "conditions": "Homo sapiens; 6-fold platinum resistant variant of GCT; at least in duplicate; read-out: IC₅₀ GCT/CIS R", "procedure": "(§1) Results expressed as µM (IC₅₀ values). All experiments were conducted at least in duplicate."}, "[4]": {"system": "GCT human testicular germ cell tumour cell line", "test": "Activity in vitro towards GCT cell line", "format": "cell-based", "conditions": "at least in duplicate, read-out: IC₅₀ GCT", "procedure": "as §1"}, "PC6 Murine plasmacytoma": {"system": "PC6 Murine plasmacytoma", "test": "Activity in vitro towards PC6 cell line", "format": "cell-based", "conditions": "for IC50: PC-6, PC6 Murine plasmacytoma, at least in duplicate, read-out: IC₅₀ PC6", "procedure": "as §1"}, "[5]": {"system": "H69 human small cell lung cancer cell line", "test": "Activity in vitro towards H69 cell line", "format": "cell-based", "conditions": "NCI-H69, at least in duplicate, read-out: IC₅₀ H69", "procedure": "as §1"}, "[6]": {"conditions": "Judson et al. 1989; cited from earlier work"}, "[7]": {"system": "L-1210 murine lymphocytic leukaemia", "test": "Activity in vitro towards L-1210 cell line", "format": "cell-based", "conditions": "Mus musculus, L1210, at least in duplicate, read-out: IC₅₀ L-1210", "procedure": "as §1"}, "[8]": {"system": "cisplatin-resistant cell-lines", "test": "Activity in vitro towards cisplatin-resistant cell lines", "format": "cell-based, human", "conditions": "Table 4 (image)", "description": "Of particular interest is that compounds (5) and (13) show high activity against cisplatin-resistant cell-lines."}, "[9]": {"system": "human ovarian tumour cell lines", "test": "Activity in vitro towards ovarian cell lines", "format": "cell-based", "conditions": "Table 4 (image)"}}}
{"compound": "2-(Hydroxyethyl)(2,2,2-trifluoroethyl)amino-4-methyl-6-(2,2,2-trifluoroethyl)amino-1,3,5-triazine [Compound 7]", "values": [{"measurement": "Highest % inhibition", "setting": "ADJ/PC6 tumour", "value": "56 (5 x 25) %"}]}
{"compound": "CN(C)c1nc(N(C)C)nc(N(CO)CC(F)(F)F)n1", "note": "[Compound 10, 2,4-Bis(Dimethylamino)-6-(hydroxymethyl)(2,2,2,trifluoroethyl)-amino-1,3,5-triazine]", "values": [{"measurement": "half-life", "setting": "[1]", "value": 45, "unit": "min"}]}
{"compound": "FC(F)(F)CNc1nc(NCC(F)(F)F)nc(NCC(F)(F)F)n1", "note": "[Compound 3, 2,4,6-Tris[(2,2,2-Trifluoroethyl)amino]-1,3,5-triazine]", "values": [{"measurement": "LD50", "setting": "[2]", "value": 71, "unit": "mg/kg"}, {"measurement": "Highest % inhibition", "setting": "ADJ/PC6 tumour", "value": "none^b (none - less than 40%)"}]}
{"compound": "OCOCN(CC(F)(F)F)c1nc(N(CO)CC(F)(F)F)nc(N(CO)CC(F)(F)F)n1", "note": "[Compound 6, 2-[([hydroxymethoxy]methyl)(2,2,2-trifluoroethyl)amino]-4,6-bis(hydroxymethyl)(2,2,2-trifluoroethyl)-amino-1,3,5-triazine]", "values": [{"measurement": "IC50", "setting": "[3]", "value": 23.7, "unit": "µM"}, {"measurement": "LD50", "setting": "[2]", "value": 280, "unit": "mg/kg"}, {"measurement": "IC50", "setting": "[4]", "value": 25.8, "unit": "µM"}, {"measurement": "Highest % inhibition", "setting": "ADJ/PC6 tumour", "value": "65 (5 x 12.5) %"}, {"measurement": "IC50", "setting": "PC6 Murine plasmacytoma", "value": 34.4, "unit": "µM"}]}
{"compound": "CN(C)c1nc(N(C)C)nc(N(C)CO)n1", "note": "[N-hydroxymethylpentamethylmelamine, reference compound]", "values": [{"measurement": "half-life", "setting": "[1]", "value": 30, "unit": "min"}]}
{"compound": "CN(CO)c1nc(N(C)CO)nc(N(C)CO)n1", "note": "[Compound 1, 2,4,6-tris{(hydroxymethyl)(methyl)amino}-1,3,5-triazine, reference compound]", "values": [{"measurement": "IC50", "setting": "[3]", "value": 25.9, "unit": "µM"}, {"measurement": "IC50", "setting": "[5]", "value": 8.7, "unit": "µM"}, {"measurement": "LD50", "setting": "[2]", "value": 140, "unit": "mg/kg"}, {"measurement": "IC50", "setting": "[4]", "value": 24.3, "unit": "µM"}, {"measurement": "half-life in humans", "setting": "[6]", "value": "short"}, {"measurement": "Therapeutic Index LD50/ED90", "setting": "ADJ/PC6 tumour", "value": 3.1}, {"measurement": "ED90", "setting": "ADJ/PC6 tumour; Mus musculus", "value": 45, "unit": "mg/kg"}, {"measurement": "Highest % inhibition", "setting": "ADJ/PC6 tumour", "value": "96 (5 x 100) %"}, {"measurement": "potency against the ADJ/PC6 tumour cell line in vitro relative to the other compounds", "setting": "PC6 Murine plasmacytoma; (1) versus (5), (6) and (13)", "value": "greater than 3 fold"}, {"measurement": "IC50", "setting": "PC6 Murine plasmacytoma", "value": 10.1, "unit": "µM"}, {"measurement": "IC50", "setting": "[7]", "value": 41.7, "unit": "µM"}]}
{"compound": "C#CCN(CO)c1nc(N(CO)CC#C)nc(N(CO)CC#C)n1", "note": "[Compound 13, 2,4,6-Tris[(hydroxymethyl)(propargyl)amino]-1,3,5-triazine]", "values": [{"measurement": "IC50", "setting": "[3]", "value": 41.8, "unit": "µM"}, {"measurement": "LD50", "setting": "[2]", "value": 280, "unit": "mg/kg"}, {"measurement": "IC50", "setting": "[4]", "value": 48.9, "unit": "µM"}, {"measurement": "activity against cisplatin-resistant cell-lines", "setting": "[8]", "value": "high activity"}, {"measurement": "potency in a variety of ovarian cell lines compared with (1)", "setting": "[9]", "value": "virtually equipotent with (1)"}, {"measurement": "Highest % inhibition", "setting": "ADJ/PC6 tumour", "value": "none (none - less than 40%)"}, {"measurement": "IC50", "setting": "PC6 Murine plasmacytoma", "value": 36.8, "unit": "µM"}, {"measurement": "IC50", "setting": "[7]", "value": 50.7, "unit": "µM"}]}
{"compound": "OCN(CC(F)(F)F)c1nc(NCC(F)(F)F)nc(NCC(F)(F)F)n1", "note": "[Compound 4, 2-(Hydroxymethyl)(2,2,2-trifluoroethyl)amino-4,6-bis[(2,2,2-trifluoroethyl)amino]-1,3,5-triazine]", "values": [{"measurement": "LD50", "setting": "[2]", "value": 117, "unit": "mg/kg"}, {"measurement": "Highest % inhibition", "setting": "ADJ/PC6 tumour", "value": "40 (5 x 50) %"}]}
{"compound": "OCN(CC(F)(F)F)c1nc(N(CO)CC(F)(F)F)nc(N(CO)CC(F)(F)F)n1", "note": "[Compound 5, 2,4,6-Tris[(Hydroxymethyl)(2,2,2-trifluoroethyl)amino]-1,3,5-triazine]", "values": [{"measurement": "activity against cisplatin-resistant cell-lines", "setting": "[8]", "value": "high activity"}, {"measurement": "potency in a variety of ovarian cell lines compared with (1)", "setting": "[9]", "value": "virtually equipotent with (1)"}, {"measurement": "IC50", "setting": "PC6 Murine plasmacytoma", "value": 38.2, "unit": "µM"}, {"measurement": "IC50", "setting": "[7]", "value": 48.6, "unit": "µM"}]}
